Patent US4528189A, “Urotensin peptides” (The Salk Institute For Biological Studies, priority 1983, dated 1985)
Where two headings read alike, the source gives them in different places.

How the values were obtained:
[1] = test system: ACTH and β-END-LI secretion; assay: secretion of ACTH and β-END-LI, general procedure (Examples V, VI); details: general procedure of Example III as printed
Description: (§1) The urotensin peptides from Examples II and III are examined for effects on the secretion of ACTH and β-endorphin in vitro and also examined in vivo. […] UI activity of the peptides was measured by the isolated rat hind limb assay, Lederis, K. et al. "Effects and Assay of Urotensin I on the Perfused Hind Limb of the Rat", Gen. Comp. Endocrinol., 24:10-16, 1974. In vivo hypotensive activity of extracted peptides was measured in anaesthetized rats, Lederis, K. and Medakovic, M. "Pharmacological Observations on the Hypotensive Action of Extracts of Teleost Fish Urophyses (Urotensin I) in the Rat", Br. J. Pharmacol. 51:315-324, 1974, and in anaesthetized dogs, MacCannell and Lederis, "Dilatation of the Mesenteric Vascular Bed of the Dog Produced by a Peptide, Urotensin I", J. Pharm. Exp. Ther. 203:38-46, 1977.
(§2) The peptide having the formula: Ac-[…]NH2 is synthesized.

blood pressure [2] = assay: mammalian vasodilatory-hypotensive activity (mesenteric blood flow, systemic blood pressure), species not stated; type: in vivo
Description: as §1, §2
The peptide having the formula: H-Pro-Pro-Ile-Ser-Ile-Asp-Leu-Thr-Phe-His-Leu-Leu-Arg-Asn-Met-Ile-Glu-Met- Ala-Arg-Ile-Glu-Asn-Glu-Arg-NH2 is synthesized.

teleost fish pituitaries = assay: secretion of ACTH by teleost fish pituitaries
Description: as §1

[3] = test system: cultured rat pituitary cells; assay: secretion of ACTH and β-endorphin by cultured rat pituitary cells; type: cell-based; details: for potency to stimulate the secretion of ACTH and β-endorphin: in vitro; for potency to stimulate ACTH and β-endorphin secretion compared with amunine (CRF): the two peptides substantially indistinguishable from each other
Description: as §1

mesenteric vascular bed [4] = assay: blood pressure and mesenteric vasodilatation in the anaesthetized dog; type: in vivo; details: for potency of synthetic peptide versus extracted and purified peptide: anaesthetized dog in vivo; for dilatation of other (non-mesenteric) vascular beds / depression of the blood pressure: dog; for depression of the blood pressure: appears due solely to dilatation of the mesenteric vascular bed; for accompanying change in blood pressure (decrease) / increase in mesenteric flow: pentobarbital-anaesthetized dog, doses of 0.1-0.5 μg
Description: as §1
(§3) In the pentobarbital-anaesthetized dog, the threshold dose of UI for mesenteric vasodilatation, when given close arterially into the cephalic mesenteric A, is between 0.001 and 0.01 μg for both sucker UI (1-41) and for the 4-41 fragment of sucker UI. Doses of 0.1-0.5 μg of both peptides produce a 50-150% increase in mesenteric flow; accompanying changes in blood pressure are very modest (about 10% decrease). […] Comp. Endocrinol. 45:446-452, 1981. Comparison of the two extracted and the two synthetic sucker peptides indicate that synthetic UI(1-41) have 111±16% activity and synthetic UI (4-41) have 123±14% activity, relative to the activity of the respective extracted sucker UI peptides.

isolated rat hind limb = isolated rat hind limb assay
Description: (§4) UI activity in the fractions was measured by the isolated rat hind limb assay, Lederis, K. et al. "Effects and Assay of Urotensin I on the Perfused Hind Limb of the Rat." Gen Comp Endocrinol. 24:10-16, 1974. In vivo hypotensive activity of extracted peptides or those obtained by enzymatic cleavage was measured in anaesthetized rats, Lederis, K. et al. "Pharmacological Observations on the Hypotensive Action of Extracts of Teleost Fish Urophyses (Urotensin I) in the Rat", Br. J. Pharmac. 51:315-324, 1974.
as §1, with “1977. […]” for “1977.”

[5] = test system: ACTH and β-END-LI secretion; assay: ACTH and β-END-LI secretion in vivo in several rat preparations
Description: as §1

blood pressure [6] = assay: in vivo hypotensive activity in anaesthetized rats; details: rat; vascular dilatation appears less selective
Description: as §4, §1

[7] = test system: isolated mesenteric artery strips; assay: isolated mesenteric artery strips of the rat
Description: as §3

[8] = comparison of extracted and synthetic sucker peptides (activity relative to extracted peptide); details: synthetic versus extracted peptide
Description: as §3

mesenteric vascular bed [9] = assay: blood pressure and vascular dilatation in the monkey; type: in vivo; details: for depression of the blood pressure: appears due solely to dilatation of the mesenteric vascular bed
Description: as §1

blood pressure [10] = details: reported, Erspamer et al.; cited from earlier work
[11] = test system: ACTH and β-endorphin secretion; details: reported; cited from earlier work

| Molecule | vasodilatory-hypotensive activity (mesenteric blood flow, systemic blood pressure) (blood pressure [2]) | potency in stimulating the secretion of ACTH relative to amunine (teleost fish pituitaries) | potency to stimulate the secretion of ACTH and β-endorphin [3] | potency to stimulate ACTH and β-endorphin secretion compared with amunine (CRF) [3] | potency of synthetic peptide versus extracted and purified peptide (mesenteric vascular bed [4]) | dilatation of other (non-mesenteric) vascular beds (mesenteric vascular bed [4]) | depression of the blood pressure (mesenteric vascular bed [4]) | accompanying change in blood pressure (decrease) (mesenteric vascular bed [4]) | increase in mesenteric flow (mesenteric vascular bed [4]) | potency of synthetic peptide versus extracted and purified peptide (isolated rat hind limb) | stimulation of ACTH and β-END-LI secretion in vivo [5] | fall in blood pressure (blood pressure [6]) | potency of synthetic peptide versus extracted and purified peptide [7] | activity relative to the activity of the respective extracted sucker UI peptide [8] [%] | dilatation of other (non-mesenteric) vascular beds (mesenteric vascular bed [9]) | depression of the blood pressure (mesenteric vascular bed [9]) | further results |
| --- | --- | --- | --- | --- | --- | --- | --- | --- | --- | --- | --- | --- | --- | --- | --- | --- | --- |
| Ac-APPISIDLTFHLLRNMIEMARIENEREQAGLNRKYLDEV-NH2 [V] | very significant increasing of mesenteric blood flow and lowering of systemic blood pressure |  |  |  |  |  |  |  |  |  |  |  |  |  |  |  | stimulation of the secretion of ACTH and β-END-LI [1]: stimulates the secretion of ACTH and β-END-LI |
| H-PPISIDLTFHLLRNMIEMARIENEREQAGLNRKYLDEV-NH2 [urotensin I (4-41)] | substantially lower blood presssure for an extended time period | several times more potent than amunine | high potency | comparable to amunine (CRF) | equipotent with the extracted and purified peptides | neither peptide dilates other vascular beds | modest but sustained depression of the blood pressure | about 10% | 50-150% | equipotent with the extracted and purified peptides | stimulate ACTH and β-END-LI secretion in vivo | more marked fall in blood pressure | equipotent with the extracted and purified peptides | 123±14 | neither peptide dilates other vascular beds | modest but sustained depression of the blood pressure | potency to stimulate the secretion of ACTH and β-endorphin ([3]; listed as UI 4-41): stimulate ACTH and β-endorphin activies in vitro; stimulation of ACTH and β-END-LI secretion in vivo ([5]; listed as UI 4-41): stimulate ACTH and β-endorphin activies in vitro and in vivo |
| H-PPISIDLTFHLLRNMIEMARIENER-NH2 [VI, H-Pro-Pro-Ile-Ser-Ile-Asp-Leu-Thr-Phe-His-Leu-Leu-Arg-Asn-Met-Ile-Glu-Met- Ala-Arg-Ile-Glu-Asn-Glu-Arg-NH2] | significant mammalian vasodilatory-hypotensive activity |  |  |  |  |  |  |  |  |  |  |  |  |  |  |  |  |
| H-NDDPPISIDLTFHLLRNMIEMARIENEREQAGLNRKYLDEV-NH2 [urotensin I] | substantially lower blood presssure for an extended time period | several times more potent than amunine | high potency | comparable to amunine (CRF) | equipotent with the extracted and purified peptides | neither peptide dilates other vascular beds | modest but sustained depression of the blood pressure | about 10% | 50-150% | equipotent with the extracted and purified peptides | stimulate ACTH and β-END-LI secretion in vivo | more marked fall in blood pressure | equipotent with the extracted and purified peptides | 111±16 | neither peptide dilates other vascular beds | modest but sustained depression of the blood pressure | potency to stimulate the secretion of ACTH and β-endorphin ([3]; listed as synthetic UI): stimulate ACTH and β-endorphin activies in vitro; stimulation of ACTH and β-END-LI secretion in vivo ([5]; listed as synthetic UI): stimulate ACTH and β-endorphin activies in vitro and in vivo |
| CC[C@H](C)[C@H](NC(=O)[C@@H](NC(=O)[C@H](CC(=O)O)NC(=O)[C@H](CC(C)C)NC(=O)[C@H](CC(C)C)NC(=O)[C@H](CC(C)C)NC(=O)[C@H](CCCNC(=N)N)NC(=O)[C@H](CC(N)=O)NC(=O)[C@H](CC(N)=O)NC(=O)[C@H](C)NC(=O)[C@H](C)NC(=O)[C@H](CCC(N)=O)NC(=O)[C@H](CCC(N)=O)NC(=O)[C@H](CCCCN)NC(=O)[C@H](CCC(=O)O)NC(=O)[C@H](CCCCN)NC(=O)[C@H](CCC(=O)O)NC(=O)[C@H](CCC(N)=O)NC(=O)[C@H](CCCCN)NC(=O)[C@H](CCC(=O)O)NC(=O)[C@@H](NC(=O)[C@H](CCC(=O)O)NC(=O)[C@@H](NC(=O)[C@H](CCSC)NC(=O)[C@H](CCCCN)NC(=O)[C@H](CCCNC(=N)N)NC(=O)[C@H](CC(C)C)NC(=O)[C@H](CC(C)C)NC(=O)[C@H](CCC(=O)O)NC(=O)[C@H](CC(C)C)NC(=O)[C@H](CO)NC(=O)[C@H](CC(C)C)NC(=O)[C@H](CC(=O)O)NC(=O)[C@@H](NC(=O)[C@H](CO)NC(=O)[C@@H](NC(=O)[C@@H]1CCCN1C(=O)[C@@H]1CCCN1C(=O)CNC(=O)[C@@H]1CCC(=O)N1)[C@@H](C)CC)[C@@H](C)CC)[C@@H](C)CC)[C@@H](C)CC)[C@@H](C)O)C(N)=O [Sauvagine] |  |  |  |  |  |  |  |  |  |  |  |  |  |  |  |  | lowering blood pressure in mammals (blood pressure [10]): biological activity in lowering blood pressure in mammals; stimulating the secretion of ACTH and β-endorphin [11]: stimulating the secretion of ACTH and β-endorphin |
